The text below walks through data of patent publication US11040981B2, “Pyrrolotriazine compounds and methods of inhibiting TAM kinases” (Syros Pharmaceuticals, Inc., priority 2017, dated 2021).

One experiment concerns the target T1, FLT3 (Homo sapiens, UniProt P36888).
T1 sequence (P36888 27-993): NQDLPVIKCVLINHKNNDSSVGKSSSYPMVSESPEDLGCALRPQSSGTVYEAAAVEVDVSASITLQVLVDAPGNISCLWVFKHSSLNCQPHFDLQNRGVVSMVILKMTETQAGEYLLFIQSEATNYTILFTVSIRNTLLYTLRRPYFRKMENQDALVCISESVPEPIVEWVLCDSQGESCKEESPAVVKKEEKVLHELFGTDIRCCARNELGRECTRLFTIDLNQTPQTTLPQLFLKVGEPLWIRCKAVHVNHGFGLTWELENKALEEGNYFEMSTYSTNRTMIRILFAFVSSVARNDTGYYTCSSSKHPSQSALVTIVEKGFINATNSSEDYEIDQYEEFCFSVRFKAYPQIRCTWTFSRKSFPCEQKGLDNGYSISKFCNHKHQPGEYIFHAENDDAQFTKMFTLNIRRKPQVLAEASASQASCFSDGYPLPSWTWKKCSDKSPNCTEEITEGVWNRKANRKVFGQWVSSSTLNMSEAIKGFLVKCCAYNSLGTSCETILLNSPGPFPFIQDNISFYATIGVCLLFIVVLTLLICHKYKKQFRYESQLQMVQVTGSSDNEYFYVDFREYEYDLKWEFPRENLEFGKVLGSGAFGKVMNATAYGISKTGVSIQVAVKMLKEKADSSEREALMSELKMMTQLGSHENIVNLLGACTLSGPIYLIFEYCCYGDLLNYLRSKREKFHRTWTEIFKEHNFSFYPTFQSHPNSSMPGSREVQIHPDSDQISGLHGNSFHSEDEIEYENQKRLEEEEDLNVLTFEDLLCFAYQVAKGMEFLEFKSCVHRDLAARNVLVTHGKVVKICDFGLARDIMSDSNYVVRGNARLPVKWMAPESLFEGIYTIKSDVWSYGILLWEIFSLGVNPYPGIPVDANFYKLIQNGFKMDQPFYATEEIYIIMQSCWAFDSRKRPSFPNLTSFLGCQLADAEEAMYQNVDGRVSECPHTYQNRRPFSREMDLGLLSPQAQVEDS
Nature of the experiment: TR-FRET kinase activity assay, FLT3. The class given is biochemical. As to conditions: ATP at Km, 60 minutes. Summed up:
(§1)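 IC50 reflects the drop in TR-FRET between Eu anti-phosphotyrosine antibody and labelled peptide after a 60-minute room-temperature reaction. Buffer was 50 mM HEPES pH 7.5 with 10 mM MgCl2, 1 mM EGTA, 0.01% Brij 35 and 1 mM DTT, with ATP at Km per enzyme and EDTA quench.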

In another experiment the target is T2, AXL (Homo sapiens, UniProt P30530).
T2 sequence (P30530 26-894): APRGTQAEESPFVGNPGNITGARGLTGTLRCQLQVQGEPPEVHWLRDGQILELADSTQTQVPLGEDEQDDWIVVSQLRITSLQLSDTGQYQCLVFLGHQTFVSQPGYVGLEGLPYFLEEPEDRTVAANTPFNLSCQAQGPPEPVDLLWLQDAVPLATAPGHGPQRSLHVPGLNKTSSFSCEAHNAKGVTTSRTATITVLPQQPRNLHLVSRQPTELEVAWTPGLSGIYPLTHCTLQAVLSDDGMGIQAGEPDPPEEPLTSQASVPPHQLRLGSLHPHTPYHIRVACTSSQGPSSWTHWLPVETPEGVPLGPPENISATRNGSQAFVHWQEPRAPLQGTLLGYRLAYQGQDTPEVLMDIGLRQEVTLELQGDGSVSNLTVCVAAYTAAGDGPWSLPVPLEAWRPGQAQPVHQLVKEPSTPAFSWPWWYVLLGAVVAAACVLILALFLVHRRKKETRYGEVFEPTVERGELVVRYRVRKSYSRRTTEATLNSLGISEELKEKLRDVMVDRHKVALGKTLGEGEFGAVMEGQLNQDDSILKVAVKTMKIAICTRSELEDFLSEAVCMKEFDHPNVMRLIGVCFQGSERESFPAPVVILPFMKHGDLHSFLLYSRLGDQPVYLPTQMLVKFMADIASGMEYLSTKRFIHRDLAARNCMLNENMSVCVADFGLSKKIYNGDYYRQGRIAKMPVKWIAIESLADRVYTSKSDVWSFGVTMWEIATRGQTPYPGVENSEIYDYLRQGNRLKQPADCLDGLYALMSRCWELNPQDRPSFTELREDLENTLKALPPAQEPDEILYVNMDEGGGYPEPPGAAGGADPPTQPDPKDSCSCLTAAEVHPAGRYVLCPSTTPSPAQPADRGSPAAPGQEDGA
Briefly: TR-FRET kinase activity assay, AXL. The class given is biochemical. As to conditions: ATP at Km, 60 minutes. Summed up: as §1

As to `COC[C@H](C)Nc1ncc2c(-c3cnn(CC4CCOCC4)c3)cc([C@H]3CC[C@H](O)CC3)n2n1` [Compound 392], the IC50 on FLT3 and against AXL was no more than 100 nM in each case.
Take `CC(COC(F)F)Nc1ncc2c(-c3cnn(C(C)(C)C(=O)N4CCOCC4)c3)cc(C3CCC(O)CC3)n2n1` (stereo not drawn) [Compound 393]: the IC50 against FLT3 and against AXL was no more than 100 nM in each case.
For `COC[C@H](C)Nc1ncc2c(-c3cnn(C4CCN(C)C4=O)c3)cc([C@H]3CC[C@H](O)CC3)n2n1` (stereo partly drawn) [Compound 394, 3-(4-(7-((trans)-4-hydroxycyclohexyl)-2-(((S)-1-methoxypropan-2-yl)amino)pyrrolo[2,1-f][1,2,4]triazin-5-yl)-1H-pyrazol-1-yl)-1-methylpyrrolidin-2-one], the IC50 (commonly the concentration that inhibits the measured activity by half) against FLT3 is 100 to 1000 nM; at AXL it was no more than 100 nM.
With `COC[C@H](C)Nc1ncc2c(-c3cnn(CC4CC(=O)N(C)C4)c3)cc([C@H]3CC[C@H](O)CC3)n2n1` (stereo partly drawn) [Compound 395], the concentration for half-maximal inhibition (IC50) at FLT3 is 100 to 1000 nM; at AXL, no more than 100 nM.
With `COC[C@H](C)Nc1ncc2c(-c3cnn([C@@H]4CCN(C(C)=O)C4)c3)cc([C@H]3CC[C@H](O)CC3)n2n1` [Compound 396], the IC50 was 100 to 1000 nM against FLT3 and no more than 100 nM on AXL.
In the case of `COC[C@H](C)Nc1ncc2c(-c3cnn([C@H]4CCN(C(C)=O)C4)c3)cc([C@H]3CC[C@H](O)CC3)n2n1` [Compound 397], the IC50 against FLT3 is 100 to 1000 nM; on AXL, no more than 100 nM.
The like results for `CNC(=O)c1cncc(-c2cc([C@H]3CC[C@H](O)CC3)n3nc(N[C@@H](C)COC(F)F)ncc23)c1` [Compound 398] were, in that order, 1000 to 10000 nM and no more than 100 nM.
Take `CC1(Nc2ncc3c(-c4cnn(C5COC5)c4)cc(C4CCC(O)CC4)n3n2)COC1` (stereo not drawn) [Compound 399]: the IC50 was 100 to 1000 nM on FLT3 and no more than 100 nM against AXL.
With `COC[C@H](C)Nc1ncc2c(-c3ccnc(O[C@H]4CCN(C)C4)c3)cc([C@H]3CC[C@H](O)CC3)n2n1` [Compound 400], the results for the IC50 against FLT3 and on AXL were 100 to 1000 nM and no more than 100 nM, respectively.
Take `COC[C@H](C)Nc1ncc2c(-c3ccnc(O[C@@H]4CCNC4)c3)cc([C@H]3CC[C@H](O)CC3)n2n1` [Compound 401]: the IC50 is 100 to 1000 nM on FLT3 and no more than 100 nM at AXL.
As to `COC[C@H](C)Nc1ncc2c(-c3ccnc(O[C@@H]4CCN(C)C4)c3)cc([C@H]3CC[C@H](O)CC3)n2n1` [Compound 402], the figures for the IC50 on FLT3 and on AXL were 100 to 1000 nM and no more than 100 nM, respectively.
Turning to `COC[C@H](C)Nc1ncc2c(-c3ccnc(O[C@H]4CCCN(C)C4)c3)cc([C@H]3CC[C@H](O)CC3)n2n1` [Compound 403], the IC50 is 100 to 1000 nM on FLT3 and no more than 100 nM against AXL.
In the same order, the values of `COC[C@H](C)Nc1ncc2c(-c3ccnc(O[C@@H]4CCCN(C)C4)c3)cc([C@H]3CC[C@H](O)CC3)n2n1` [Compound 404] are 100 to 1000 nM and no more than 100 nM.
As for `C[C@@H](COC(F)F)Nc1ncc2c(-c3ccnc(N4CCOCC4)c3)cc([C@H]3CC[C@H](O)CC3)n2n1` [Compound 405], the IC50 against FLT3 and against AXL was no more than 100 nM each time.
With `COC[C@H](C)Nc1ncc2c(-c3cnn(C4COC4)c3)cc(C3CCC(=O)CC3)n2n1` [Compound 406], the IC50 on FLT3 and against AXL was 100 to 1000 nM in each case.
`CNC(=O)c1ncc(-c2cc([C@H]3CC[C@H](O)CC3)n3nc(N[C@@H](C)COC(F)F)ncc23)cn1` [Compound 407]: the half-maximal inhibitory concentration (IC50) was 100 to 1000 nM at FLT3 and no more than 100 nM on AXL.
`COC[C@H](C)Nc1ncc2c(-c3cnn(C4(C(=O)N5CCCC5)CC4)c3)cc([C@H]3CC[C@H](O)CC3)n2n1` [Compound 408]: the IC50 against FLT3 is 100 to 1000 nM; at AXL, no more than 100 nM.
On to `CNC(=O)c1cc(-c2cc([C@H]3CC[C@H](O)CC3)n3nc(N[C@@H](C)COC(F)F)ncc23)ccn1` [Compound 411], for which the IC50 at FLT3 is 100 to 1000 nM; against AXL it was no more than 100 nM.
Consider `C[C@@H](CC(F)(F)F)Nc1ncc2c(C3=CCN(C(=O)OC(C)(C)C)CC3)cc([C@H]3CC[C@H](O)CC3)n2n1` [Compound 412], for which the IC50 against FLT3 and against AXL was no more than 100 nM each time.
Turning to `CC(=O)N1CCN(Cc2ccc(-c3cc([C@H]4CC[C@H](O)CC4)n4nc(N[C@@H](C)COC(F)F)ncc34)cc2)CC1` [Compound 413], the IC50 at FLT3 and at AXL was no more than 100 nM each time.
As for `COC[C@H](C)Nc1ncc2c(-c3cnn(C4(C(=O)N5CCOCC5)CC4)c3)cc([C@H]3CC[C@H](O)CC3)n2n1` [Compound 414], the 50% inhibitory concentration (IC50) at FLT3 is 1000 to 10000 nM; on AXL, no more than 100 nM.
For `COC[C@H](C)Nc1ncc2c(-c3cnn(C4(C(=O)NC(C)C)CC4)c3)cc([C@H]3CC[C@H](O)CC3)n2n1` [Compound 415], the IC50 was 1000 to 10000 nM on FLT3 and no more than 100 nM on AXL.
`COC[C@H](C)Nc1ncc2c(-c3ccnc(N[C@@H]4CCOC4)c3)cc([C@H]3CC[C@H](O)CC3)n2n1` [Compound 416]: the 50% inhibitory concentration (IC50) against FLT3 is 100 to 1000 nM; at AXL, no more than 100 nM.
In the case of `COC[C@H](C)Nc1ncc2c(-c3ccnc(NC4CCOC4)c3)cc([C@H]3CC[C@H](O)CC3)n2n1` (stereo partly drawn) [Compound 418], the IC50 against FLT3 is 100 to 1000 nM; at AXL it was no more than 100 nM.
Regarding `COC[C@H](C)Nc1ncc2c(-c3cnn(CS(C)(=O)=O)c3)cc([C@H]3CC[C@H](O)CC3)n2n1` [Compound 419], the IC50 against FLT3 was 100 to 1000 nM; on AXL, no more than 100 nM.
For the molecule `COC[C@H](C)Nc1ncc2c(-c3cnn(CC4COC4)c3)cc([C@H]3CC[C@H](O)CC3)n2n1` [Compound 420], the IC50 was 100 to 1000 nM on FLT3 and no more than 100 nM at AXL.
As for `COC[C@H](C)Nc1ncc2c(-c3cnn([C@@H]4CO[C@H]5OCC[C@H]54)c3)cc([C@H]3CC[C@H](O)CC3)n2n1` [Compound 422], the IC50 on FLT3 is 100 to 1000 nM; against AXL it was no more than 100 nM.
